From patent US6833248B2, “Human caspase-12 materials and methods” (Pharmacia & Upjohn Company, priority 2000, dated 2004)
Residues, ends and D or L forms follow the SMILES beside them. *: point of attachment. Cbz = O=C(OCc1ccccc1)*; CH2F = FC*

Experiments:
caspase-3 = experiment: Caspase-3 cleavage following UV irradiation in SH-EP cells subjected to ER stress (Western blot); assay type: cell-based; conditions: 2 μM A23187 40 hours
endogenous caspase-12 = experiment: Caspase-12 cleavage/activation in SH-EP cells subjected to ER stress (Western blot); assay type: cell-based, human; conditions: 2 μM A23187 40 hours, harvested 6.5 hours after UV
Description: (§1) The biological significance of caspase-12 up-regulation by the ER stress-inducing agent A23187 in apoptosis was further investigated. SH-EP cells were treated with 2 μM A23187 for 40 hours to induce expression of endogenous caspase-12. One control culture was left untreated. Of the four cultures treated with A23187, one culture received 10 μg/ml cycloheximide (CHX) to block new protein synthesis and two cultures were subjected to an apoptotic stimulus, either 250 ng/ml α-Fas antibody for 24 hours or 1200 microjoules UV irradiation. The cultures were harvested after 6.5 hours. Western blot analysis of caspase-12 expression and activation was done as described above in Example 8A, using similar protein loads for each condition tested.
Additional experiments of were conducted to evaluate the effect of a caspase or calpain inhibitor on SH-EP cells subjected to ER stress. Z-VAD-fmk (Z=benzyloxycarbonyl group at the N-terminus of Val-Ala-DL-Asp(OMe)-fluoromethylketone; BACHEM) is a general caspase inhibitor that inhibits most of the known caspases, to varying extents. Calpeptin is an inhibitor of calpains, a family of calcium-dependent proteases that proteolyze a variety of cellular proteins. […] Caspase activation was evaluated by Western blot using antibodies to caspase-12 as described above in Example 8A. […]

[1] = test system: endogenous human caspase-12; experiment: Induction of endogenous caspase-12 protein by ER stress-inducing agents in SH-EP cells (Western blot); assay type: cell-based
Description: Reports in the literature indicated a strong activation of murine caspase-12 in response to agents which induce an endoplasmic reticulum (ER) stress response, such as tunicamycin or the Ca^2+ ionophore A23187. The activation of endogenous human caspase-12 by these ER stress-inducing agents in SH-EP and HEK293 cells was evaluated by Western blot analysis of cell lysates. SH-EP is a neuroblastoma cell line that endogenously expresses human caspase-12 at detectable levels. HEK293 is a transformed kidney cell line that lacks detectable caspase-12.
Cell cultures were treated with 1 μg/ml tunicamycin or 2 μM A23187 (Calbiochem) and harvested over time. Cells were lysed in detergent buffer, cellular proteins resolved on NuPAGE gels and subjected to Western blot analysis using the same antibody as in Example 8A above. […] (BACHEM) for 40 hours.
as §1

For `COC(=O)C[C@H](NC(=O)[C@H](C)NC(=O)[C@@H](NC(=O)OCc1ccccc1)C(C)C)C(=O)CF` [Z-VAD-fmk] (Cbz-Val-Ala-Asp(OMe)-CH2F), the “Cleavage of caspase-3 following UV irradiation” value (caspase-3; 50 μM Z-VAD-fmk) was “inhibited” and the “Cleavage of pro-caspase-12 after UV irradiation” value (endogenous caspase-12; pre-incubated with 50 μM Z-VAD-fmk 1 hour prior to UV) was “reduces cleavage”.
In the case of `C[C@@H]1C[C@@H]([C@H](O)CC2CC(=O)NC(=O)C2)C(=O)[C@@H](C)C1` [cycloheximide], the “A23187-induced expression of caspase-12” value ([1]; SH-EP cells, 2 μM A23187 for 40 hours plus 10 μg/ml cycloheximide) is reported as “inhibited”.
With `CNc1ccc2oc(C[C@H]3O[C@@]4(CC[C@H]3C)O[C@H]([C@H](C)C(=O)c3ccc[nH]3)[C@H](C)C[C@H]4C)nc2c1C(=O)O` [A23187] the “Induction of caspase-12 protein” value ([1]; SH-EP cells, 2 μM A23187, harvested over time) was “strong induction” and the “Expression of caspase-12” value ([1]; SH-EP cells, 2 μM A23187 for 40 hours) was “induced”.
In the case of “β-amyloid [25-35]: β-amyloid [25-35] (BACHEM) (GSNKGAIIGLM; Amyloid-beta protein 42; UniProt P05067 696-706, looked up, fragment)”, the “Induction of human caspase-12” value ([1]; cultures treated with 40 μM β-amyloid [25-35] for 40 hours) is reported as “induction of human caspase-12 was observed”.
`CCCC[C@@H](C=O)NC(=O)[C@H](CC(C)C)NC(=O)OCc1ccccc1` [calpeptin] was tested, and the “Cleavage of caspase-3 following UV irradiation” value (caspase-3; 10 μM calpeptin) was “not affected” and the “Cleavage of procaspase-12 after UV irradiation” value (endogenous caspase-12; pre-incubated with 10 μM calpeptin 1 hour prior to UV) was “reduced”.
